Test results taken from paper PMC8011991 (Journal of medicinal chemistry, 2020).
“Also recorded” adds a separate entry of the source.

Tests used:
[1] = system: NL4–3 Env pseudo-typed HIV-1 virus; test: ELISA-based quantification of capsid; assay type: cell-based; conditions: 10 μM compound
recombinant HIV-1 RT = recombinant HIV-1 RT (Human immunodeficiency virus type 1 group M subtype B, UniProt P03366); test: Recombinant HIV-1 RT inhibitory assay; assay type: biochemical; conditions: at 0.2 μM
in vitro = conditions: human, microsomes
[2] = In vivo pharmacokinetics in rats; conditions: rat, iv 2 mg/kg
Kunming mice = test: Single-dose acute toxicity in mice; conditions: intragastric

Compound | increase of CA/p24 content of the produced virus compared to the DMSO control [1] | CLint scaled (in vitro) | other results
COc1ccc(N(C)C(=O)[C@H](Cc2ccccc2)NC(=O)CNS(=O)(=O)c2cccc(F)c2)cc1 [Compound 6k, (S)-2-(2-((3-fluorophenyl)sulfonamido)acetamido)-N-(4-methoxyphenyl)-N-methyl-3-phenylpropanamide] | 0–20% |  | 
COc1ccc(N(C)C(=O)[C@H](Cc2ccccc2)NC(=O)CN2C(=O)Nc3ccccc3S2(=O)=O)cc1 [Compound 8a, (S)-2-(2-(1,1-dioxido-3-oxo-3,4-dihydro-2H-benzo[e][1,2,4]thiadiazin-2-yl)acetamido)-N-(4-methoxyphenyl)-N-methyl-3-phenylpropanamide] | 0–20% |  | 
COc1ccc(N(C)C(=O)[C@H](Cc2ccccc2)NC(=O)CN2CCN(S(=O)(=O)c3ccc(N)cc3)CC2=O)cc1 [Compound 11l, (S)-2-(2-(4-((4-aminophenyl)sulfonyl)-2-oxopiperazin-1-yl)acetamido)-N-(4-methoxyphenyl)-N-methyl-3-phenylpropanamide] | 0–20% | 308 mL/min/kg | RT activity as compared to the DMSO control (recombinant HIV-1 RT): 95±15%; V [2]: 5752.4 mL/kg; death after single dose (Kunming mice; 1000 mg/kg): No death was observed; acute toxicity / tolerability (Kunming mice; single dose 1000 mg/kg, one week): no acute toxicity; also recorded: well-tolerated
O=C(O)Cc1ccccc1Nc1c(Cl)cccc1Cl [Diclofenac] |  | 84.3 mL/min/kg | 
Cc1[nH]c2ccccc2c1CC(=O)N[C@@H](Cc1ccccc1)C(=O)N(C)c1ccccc1 [PF-74, reference compound] | around 40% | 972 mL/min/kg | 
C[C@]12CC[C@H]3[C@@H](CCC4=CC(=O)CC[C@@]43C)[C@@H]1CC[C@@H]2O [Testosteron^e, Testosterone] |  | 85.7 mL/min/kg | CLint(mic) (HLM 0.5 mg protein/mL): 95.2 µL/min/mg; Remaining (T=60min) (HLM 0.5 mg protein/mL, 60 min): 6.1%; Remaining (NCF=60min) (no cofactor (no NADPH), 60 min): 84.0%
